Laboratory results: ChEMBL document CHEMBL1641537, “Chalcone-based inhibitors against hypoxia-inducible factor 1--structure activity relationship studies” (Bioorg Med Chem Lett, 2011)

Experiment: Inhibition of cobalt chloride-induced HIF-1 activation expressed in mouse NIH3T3 cells after 8 hrs by luciferase reporter gene assay
Format: cell-based
Conditions: NIH3T3, 8 h

IC50 [µM]	SMILES
2.2	COc1cc(O)c(C(=O)/C=C/c2cccc(Br)c2)c(OC)c1
9.9	COc1cc(O)c(C(=O)/C=C/c2ccccc2C)c(OC)c1
11	COc1ccc(/C=C/C(=O)c2c(O)cc(OC)cc2OC)cc1 [FLAVOKAWAIN A]
3.1	COc1cc(O)c(C(=O)/C=C/c2ccc(O)cc2)c(OC)c1 [FLAVOKAWAIN C]
> 20	COc1cc(O)c(C(=O)/C=C/c2ccc(Cl)cc2)c(OC)c1
3.6	COc1cc(O)c(C(=O)/C=C/c2cccc(C)c2)c(OC)c1
12	CCCOc1ccc(/C=C/C(=O)c2c(O)cc(OC)cc2OC)cc1
> 20	COc1cc(O)c(C(=O)/C=C/c2ccc(F)cc2)c(OC)c1
3.3	COc1cc(O)c(C(=O)/C=C/c2ccccc2)c(OC)c1 [FLAVOKAWAIN B]

Continued, compound first:

SMILES	IC50 [µM]
CC(C)=CCc1c(O)cc(C(=O)[C@H]2[C@@H](c3c(O)ccc(C(=O)/C=C/c4ccc(O)cc4)c3O)C=C(C)C[C@@H]2c2ccc(O)cc2O)cc1O [KUWANON R]	3.2
O=C(/C=C/c1ccccc1)c1ccc(C(F)(F)F)cc1	> 20
Cc1ccc(C(=O)/C=C/c2ccccc2)cc1	> 20
O=C(/C=C/c1ccc(O)c(O)c1)c1ccc(O)cc1O [BUTEIN]	> 20
CC(C)=CCc1c(O)cc(C(=O)[C@H]2[C@@H](c3c(O)ccc(C(=O)/C=C/c4ccc(O)cc4)c3O)C=C(C)C[C@@H]2c2ccc(O)cc2)cc1O [KUWANON V]	8.3
CC(C)=CCc1c(O)cc(C(=O)[C@H]2[C@@H](c3c(O)ccc(C(=O)/C=C/c4ccc(O)cc4O)c3O)C=C(C)C[C@@H]2c2ccc(O)cc2O)cc1O [KUWANON J]	4.1
O=C(/C=C/c1ccccc1)c1ccc(F)cc1	> 20
COc1cc(/C=C/C(=O)CC(=O)/C=C/c2ccc(O)c(OC)c2)ccc1O [CURCUMIN]	9.6
COc1cc(O)c(C(=O)/C=C/c2ccccc2Br)c(OC)c1	11.6
O=C(/C=C/c1ccccc1O)c1ccccc1	> 20
O=C(/C=C/c1ccc(O)cc1)c1ccccc1 [4-HYDROXYCHALCONE]	> 20
O=C(/C=C/c1ccccc1)c1ccc(F)c(F)c1	> 20
COc1cc(O)c(C(=O)/C(C)=C/c2ccccc2)c(OC)c1	> 20
